The values below come from patent US12595230B2, “Substituted 6,7-dihydro-5H-benzo[7]annulene compounds and their derivatives, processes for their preparation and therapeutic uses thereof” (Sanofi, priority 2020, dated 2026).

In the experiment the target is T1, ERα (Homo sapiens, UniProt P03372).
T1 construct: host or cells: MCF7
T1 sequence (P03372 1-595): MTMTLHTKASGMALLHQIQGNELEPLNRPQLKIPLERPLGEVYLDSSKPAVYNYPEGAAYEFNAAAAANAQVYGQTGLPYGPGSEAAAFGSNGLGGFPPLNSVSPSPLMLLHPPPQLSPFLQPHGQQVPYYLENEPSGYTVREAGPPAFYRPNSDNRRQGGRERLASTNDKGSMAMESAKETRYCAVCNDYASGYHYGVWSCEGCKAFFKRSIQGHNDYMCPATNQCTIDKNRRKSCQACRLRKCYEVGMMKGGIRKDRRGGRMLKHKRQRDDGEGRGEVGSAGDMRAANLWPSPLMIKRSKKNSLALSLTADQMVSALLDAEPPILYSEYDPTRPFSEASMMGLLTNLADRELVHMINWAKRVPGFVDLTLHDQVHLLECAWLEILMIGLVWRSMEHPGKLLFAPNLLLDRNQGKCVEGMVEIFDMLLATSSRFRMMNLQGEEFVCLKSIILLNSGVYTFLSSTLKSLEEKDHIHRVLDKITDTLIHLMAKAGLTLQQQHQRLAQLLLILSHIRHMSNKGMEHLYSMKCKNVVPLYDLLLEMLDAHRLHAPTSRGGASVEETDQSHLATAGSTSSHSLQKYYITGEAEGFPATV
Kind of experiment: Estrogen receptor degradation activity: breast cancer cell ERα in cell western assay (MCF7 cells). The format is cell-based. The settings on record: for % Degradation At 0.3 μM: 4 hours, relative to fulvestrant 0.1 μM positive control; for DC50: 4 hours post compound addition, concentration which degrades 50% of the estrogen receptor, read-out: Degradation IC50. Put shortly:
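Compounds were applied to MCF7 cells in stripped-serum, phenol red-free medium for 4 h at final 0.3–0.0000018 μM, with fulvestrant (0.1 μM) as control. Value: IC50 (nM) for 50% ERα degradation.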

On to `COc1c(C(=O)O)ccc2c1CCCC(c1ccc(F)cc1F)=C2c1ccc(CC2CN(CCCF)C2)cc1` [Example 270, 8-(2,4-difluorophenyl)-9-(4-((1-(3-fluoropropyl)azetidin-3-yl)methyl)phenyl)-4-methoxy-6,7-dihydro-5H-benzo[7]annulene-3-carboxylic acid], for which the “% Degradation At 0.3 μM” value came to 100% and the DC50 came to 225000 pM.

For the molecule `Cc1c(F)ccc(C2=C(c3ccc(CC4CN(CCCF)C4)cc3)c3ccc(C(=O)O)cc3CCC2C)c1C` (racemic) [Example 309, 8-(4-fluoro-2,3-dimethylphenyl)-9-(4-((1-(3-fluoropropyl)azetidin-3-yl)methyl)phenyl)-7-methyl-6,7-dihydro-5H-benzo[7]annulene-3-carboxylic acid], the “% Degradation At 0.3 μM” value turned out to be 88% and the DC50 turned out to be 400 pM.

`NC(c1ccc(C2=C(c3ccc(Cl)cc3Cl)CCCc3cc(C(=O)O)ccc32)cc1)C1CN(CCCF)C1` (single isomer, unassigned; isomer 2) [Example 244, 9-(4-(Amino(1-(3-fluoropropyl)azetidin-3-yl)methyl)phenyl)-8-(2,4-dichlorophenyl)-6,7-dihydro-5H-benzo[7]annulene-3-carboxylic Acid Isomer 2]: the “% Degradation At 0.3 μM” value is 86% and the DC50 came to 13600 pM.

With `O=C(O)c1ccc2c(c1)CCCC(c1cccc(F)c1F)=C2c1ccc(CC2CN(CCCF)C2)cc1` [Example 22, 8-(2,3-difluorophenyl)-9-(4-((1-(3-fluoropropyl)azetidin-3-yl)methyl)phenyl)-6,7-dihydro-5H-benzo[7]annulene-3-carboxylic acid], the “% Degradation At 0.3 μM” value was determined as 92% and the DC50 was found to be 300 pM.

For the molecule `COC(c1ccc(C2=C(c3ccc(Cl)cc3Cl)CCCc3cc(C(=O)O)ccc32)cc1)C1CN(CCCF)C1` (single isomer, unassigned; isomer 1) [Example 227, 8-(2,4-dichlorophenyl)-9-(4-((1-(3-fluoropropyl)azetidin-3-yl)(methoxy)methyl)phenyl)-6,7-dihydro-5H-benzo[7]annulene-3-carboxylic Acid Isomer 1], the “% Degradation At 0.3 μM” value was found to be 75% and the DC50 is 600 pM.

For the molecule `COc1c(F)cccc1C1=C(c2ccc(CC3CN(CCCF)C3)cc2)c2ccc(C(=O)O)cc2CCC1` [Example 335, 8-(3-fluoro-2-methoxyphenyl)-9-(4-((1-(3-fluoropropyl)azetidin-3-yl)methyl)phenyl)-6,7-dihydro-5H-benzo[7]annulene-3-carboxylic acid], the “% Degradation At 0.3 μM” value turned out to be 93% and the DC50 was 600 pM.

On to `Cc1cc(Cl)ccc1C1=C(c2ccc(CC3CN(CCCF)C3)cc2)c2ccc(C(=O)O)cc2CCC1` [Example 25, 8-(4-chloro-2-methylphenyl)-9-(4-((1-(3-fluoropropyl)azetidin-3-yl)methyl)phenyl)-6,7-dihydro-5H-benzo[7]annulene-3-carboxylic acid], for which the “% Degradation At 0.3 μM” value was found to be 91% and the DC50 amounted to 300 pM.

For the molecule `Cl.O=C(O)c1ccc2c(c1)CCC(c1ccc(Cl)cc1Cl)=C2c1ccc(CC2CN(CCCF)C2)cc1` [Example 262, 6-(2,4-Dichlorophenyl)-5-(4-((1-(3-fluoropropyl)azetidin-3-yl)methyl)phenyl)-7,8-dihydronaphthalene-2-carboxylic Acid Hydrochloride], the “% Degradation At 0.3 μM” value is 91% and the DC50 worked out at 1600 pM.

Turning to `O=C(O)c1ccc2c(c1)CCCC(C1CCOCC1)=C2c1ccc(CC2CN(CCCF)C2)cc1` [Example 38, 9-(4-((1-(3-fluoropropyl)azetidin-3-yl)methyl)phenyl)-8-(tetrahydro-2H-pyran-4-yl)-6,7-dihydro-5H-benzo[7]annulene-3-carboxylic acid], the “% Degradation At 0.3 μM” value was determined as 83% and the DC50 came to 7000 pM.

As to `O=C(O)c1ccc2c(c1)CCCC(c1ccc(Cl)cc1C(F)(F)F)=C2c1ccc(CC2CN(CCC(F)F)C2)cc1` [Example 289, 8-(4-chloro-2-(trifluoromethyl)phenyl)-9-(4-((1-(3,3-difluoropropyl)azetidin-3-yl)methyl)phenyl)-6,7-dihydro-5H-benzo[7]annulene-3-carboxylic acid], the “% Degradation At 0.3 μM” value amounted to 86% and the DC50 is 300 pM.

Turning to `O=C(O)c1ccc2c(c1)CCC(C1CC1)C(c1ccc(Cl)cc1)=C2c1ccc(CC2CN(CCCF)C2)cc1` (racemic) [Example 324, 8-(4-chlorophenyl)-7-cyclopropyl-9-(4-((1-(3-fluoropropyl)azetidin-3-yl)methyl)phenyl)-6,7-dihydro-5H-benzo[7]annulene-3-carboxylic acid], the “% Degradation At 0.3 μM” value was 86% and the DC50 amounted to 800 pM.

Consider `O=C(O)c1ccc2c(c1)CCCC(c1ccc(F)c(F)c1)=C2c1ccc(CC2CN(CCCF)C2)cc1` [Example 45, 8-(3,4-difluorophenyl)-9-(4-((1-(3-fluoropropyl)azetidin-3-yl)methyl)phenyl)-6,7-dihydro-5H-benzo[7]annulene-3-carboxylic acid], for which the “% Degradation At 0.3 μM” value stood at 86% and the DC50 amounted to 300 pM.

Turning to `Cc1ccc(C2=C(c3ccc(CC4CN(CCCF)C4)cc3)c3ccc(C(=O)O)cc3CCC2)c(F)c1.Cl` [Example 11, 8-(2-fluoro-4-methylphenyl)-9-(4-((1-(3-fluoropropyl)azetidin-3-yl)methyl)phenyl)-6,7-dihydro-5H-benzo[7]annulene-3-carboxylic acid], the “% Degradation At 0.3 μM” value was 91% and the DC50 came out at 400 pM.

On to `O=C(O)c1cc2c(cc1F)C(c1ccc(CC3CN(CCCF)C3)cc1)=C(c1ccc(Cl)cc1Cl)CCC2` [Example 206, 8-(2,4-dichlorophenyl)-2-fluoro-9-(4-((1-(3-fluoropropyl)azetidin-3-yl)methyl)phenyl)-6,7-dihydro-5H-benzo[7]annulene-3-carboxylic acid], for which the “% Degradation At 0.3 μM” value came out at 86% and the DC50 is 400 pM.

For the molecule `Cc1cc(OC(F)F)ccc1C1=C(c2ccc(CC3CN(CCCF)C3)cc2)c2ccc(C(=O)O)cc2CCC1` [Example 20, 8-(4-(difluoromethoxy)-2-methylphenyl)-9-(4-((1-(3-fluoropropyl)azetidin-3-yl)methyl)phenyl)-6,7-dihydro-5H-benzo[7]annulene-3-carboxylic acid], the “% Degradation At 0.3 μM” value is 91% and the DC50 was determined as 300 pM.

With `Cc1cccc(C2=C(c3ccc(CC4CN(CCC(F)F)C4)cc3)c3ccc(C(=O)O)cc3CCC2)c1Cl` [Example 277, 8-(2-chloro-3-methylphenyl)-9-(4-((1-(3,3-difluoropropyl)azetidin-3-yl)methyl)phenyl)-6,7-dihydro-5H-benzo[7]annulene-3-carboxylic acid], the “% Degradation At 0.3 μM” value stood at 82% and the DC50 amounted to 300 pM.

Take `O=C(O)c1ccc2c(c1)CCCC(c1ccc(Cl)cc1C(F)(F)F)=C2c1ccc(CC2(F)CN(CCCF)C2)cc1` [Example 237, 8-(4-chloro-2-(trifluoromethyl)phenyl)-9-(4-((3-fluoro-1-(3-fluoropropyl)azetidin-3-yl)methyl)phenyl)-6,7-dihydro-5H-benzo[7]annulene-3-carboxylic acid]: the “% Degradation At 0.3 μM” value amounted to 88% and the DC50 is 5800 pM.

As to `Cl.O=C(O)c1ccc2c(c1)CCCC(C1CCC(F)(F)CC1)=C2c1ccc(CC2CN(CCCF)C2)cc1` [Example 4, 8-(4,4-Difluorocyclohexyl)-9-(4-((1-(3-fluoropropyl)azetidin-3-yl)methyl)phenyl)-6,7-dihydro-5H-benzo[7]Annulene-3-carboxylic Acid Hydrochloride], the “% Degradation At 0.3 μM” value is reported as 85% and the DC50 turned out to be 900 pM.

With `Oc1ccc2c(c1)CCCC(c1ccc(Cl)cc1Cl)=C2c1ccc(CC2CN(CCCF)C2)cc1` [Example 254, 8-(2,4-dichlorophenyl)-9-(4-((1-(3-fluoropropyl)azetidin-3-yl)methyl)phenyl)-6,7-dihydro-5H-benzo[7]annulen-3-ol], the “% Degradation At 0.3 μM” value worked out at 85% and the DC50 is 1400 pM.

In the case of `O=C(O)c1ccc2c(c1)CCCC(c1ccc(Cl)cc1Cl)=C2c1ccc(C(F)C2CN(CCCF)C2)cc1` (single isomer, unassigned) [Example 43, 8-(2,4-dichlorophenyl)-9-(4-(fluoro(1-(3-fluoropropyl)azetidin-3-yl)methyl)phenyl)-6,7-dihydro-5H-benzo[7]annulene-3-carboxylic acid], the “% Degradation At 0.3 μM” value is on record as 90% and the DC50 came out at 400 pM.

`Cc1c(C2=C(c3ccc(CC4CN(CCC(F)F)C4)cc3)c3ccc(C(=O)O)cc3CCC2)cccc1C(F)(F)F` [Example 287, 9-(4-((1-(3,3-difluoropropyl)azetidin-3-yl)methyl)phenyl)-8-(2-methyl-3-(trifluoromethyl)phenyl)-6,7-dihydro-5H-benzo[7]annulene-3-carboxylic acid]: the “% Degradation At 0.3 μM” value is reported as 86% and the DC50 worked out at 400 pM.
